Source: patent US8969516B2, “Method of hydrolysis of peptide bond” (priority 2006, dated 2015)

Test: MALDI-TOF screening of Ni^2+ dependent hydrolysis in a combinatorial peptide library
Format: physicochemical
Conditions: Ni^2+ 2 mM, pH 8.2, 10 mM Tris, score=24/tm
How it was run: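 Ni2+ 2 mM, peptide pool 1 mM (total), 10 mM Tris pH 8.2; 37 °C and 45 °C in parallel; MS aliquots at 2/4/6/8 h; products detected visually. X: all proteinogenic residues except Asp, Glu, Cys; Z: all except Cys.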

[1] = CH3CO-Gly-Ala-Ser-X-His-Z-Lys-Phe-Leu-NH2 library, 37° C.
[2] = CH3CO-Gly-Ala-Ser-X-His-Z-Lys-Phe-Leu-NH2 library, 45° C.
[3] = CH3CO-Gly-Ala-Thr-X-His-Z-Lys-Phe-Leu-NH2 library, 45° C.
[4] = CH3CO-Gly-Ala-Thr-X-His-Z-Lys-Phe-Leu-NH2 library, 37° C.

| Substance | hydrolysis score from MALDI-TOF screening [1] | hydrolysis score from MALDI-TOF screening [2] | hydrolysis score from MALDI-TOF screening [3] | hydrolysis score from MALDI-TOF screening [4] |
| --- | --- | --- | --- | --- |
| Ac-GASHHDKFL-NH2 [SHHD] | 0 (a score of 0 if no trace of the product of hydrolysis was seen after 8 hours of incubation) | 0 (a score of 0 if no trace of the product of hydrolysis was seen after 8 hours of incubation) |  |  |
| Ac-GATPHIKFL-NH2 [TPHI] |  |  | 0 (a score of 0 if no trace of the product of hydrolysis was seen after 8 hours of incubation) |  |
| Ac-GASAHNKFL-NH2 [SAHN] | 0 (a score of 0 if no trace of the product of hydrolysis was seen after 8 hours of incubation) | 0 (a score of 0 if no trace of the product of hydrolysis was seen after 8 hours of incubation) |  |  |
| Ac-GATNHLKFL-NH2 [TNHL] |  |  | 0 (a score of 0 if no trace of the product of hydrolysis was seen after 8 hours of incubation) | 0 (a score of 0 if no trace of the product of hydrolysis was seen after 8 hours of incubation) |
| Ac-GASTHRKFL-NH2 [STHR] | 3 (a score of 3 for detection at 8 hours) | 6 (a score of 6 for detection at 4 hours) |  |  |
| Ac-GATIHLKFL-NH2 [TIHL] |  |  | 0 (a score of 0 if no trace of the product of hydrolysis was seen after 8 hours of incubation) | 0 (a score of 0 if no trace of the product of hydrolysis was seen after 8 hours of incubation) |
| Ac-GATNHTKFL-NH2 [TNHT] |  |  | 0 (a score of 0 if no trace of the product of hydrolysis was seen after 8 hours of incubation) | 0 (a score of 0 if no trace of the product of hydrolysis was seen after 8 hours of incubation) |
| Ac-GATQHIKFL-NH2 [TQHI] |  |  | 3 (a score of 3 for detection at 8 hours) | 0 (a score of 0 if no trace of the product of hydrolysis was seen after 8 hours of incubation) |
| Ac-GASFHMKFL-NH2 [SFHM] | 0 (a score of 0 if no trace of the product of hydrolysis was seen after 8 hours of incubation) | 3 (a score of 3 for detection at 8 hours) |  |  |
| Ac-GATAHLKFL-NH2 [TAHL] |  |  | 0 (a score of 0 if no trace of the product of hydrolysis was seen after 8 hours of incubation) | 0 (a score of 0 if no trace of the product of hydrolysis was seen after 8 hours of incubation) |
| Ac-GASNHEKFL-NH2 [SNHE] | 0 (a score of 0 if no trace of the product of hydrolysis was seen after 8 hours of incubation) | 0 (a score of 0 if no trace of the product of hydrolysis was seen after 8 hours of incubation) |  |  |
| Ac-GASYHLKFL-NH2 [SYHL] | 4 (a score of 4 for detection at 6 hours) | 6 (a score of 6 for detection at 4 hours) |  |  |
| Ac-GASIHKKFL-NH2 [SIHK] | 3 (a score of 3 for detection at 8 hours) | 4 (a score of 4 for detection at 6 hours) |  |  |
| Ac-GATIHHKFL-NH2 [TIHH] |  |  | 0 (a score of 0 if no trace of the product of hydrolysis was seen after 8 hours of incubation) | 0 (a score of 0 if no trace of the product of hydrolysis was seen after 8 hours of incubation) |
| Ac-GASSHFKFL-NH2 [SSHF] | 3 (a score of 3 for detection at 8 hours) | 3 (a score of 3 for detection at 8 hours) |  |  |
| Ac-GASIHPKFL-NH2 [SIHP] | 0 (a score of 0 if no trace of the product of hydrolysis was seen after 8 hours of incubation) | 0 (a score of 0 if no trace of the product of hydrolysis was seen after 8 hours of incubation) |  |  |

| Substance | hydrolysis score from MALDI-TOF screening [1] | hydrolysis score from MALDI-TOF screening [2] | hydrolysis score from MALDI-TOF screening [3] | hydrolysis score from MALDI-TOF screening [4] |
| --- | --- | --- | --- | --- |
| Ac-GASAHLKFL-NH2 [SAHL] | 0 (a score of 0 if no trace of the product of hydrolysis was seen after 8 hours of incubation) | 4 (a score of 4 for detection at 6 hours) |  |  |
| Ac-GASRHDKFL-NH2 [SRHD] | 0 (a score of 0 if no trace of the product of hydrolysis was seen after 8 hours of incubation) | 0 (a score of 0 if no trace of the product of hydrolysis was seen after 8 hours of incubation) |  |  |
| Ac-GASPHQKFL-NH2 [SPHQ] | 0 (a score of 0 if no trace of the product of hydrolysis was seen after 8 hours of incubation) | 0 (a score of 0 if no trace of the product of hydrolysis was seen after 8 hours of incubation) |  |  |
| Ac-GASFHFKFL-NH2 [SFHF] | 3 (a score of 3 for detection at 8 hours) | 6 (a score of 6 for detection at 4 hours) |  |  |
| Ac-GASWHHKFL-NH2 [SWHH] | 4 (a score of 4 for detection at 6 hours) | 3 (a score of 3 for detection at 8 hours) |  |  |
| Ac-GATHHAKFL-NH2 [THHA] |  |  | 4 (a score of 4 for detection at 6 hours) | 0 (a score of 0 if no trace of the product of hydrolysis was seen after 8 hours of incubation) |
| Ac-GATMHHKFL-NH2 [TMHH] |  |  | 0 (a score of 0 if no trace of the product of hydrolysis was seen after 8 hours of incubation) | 0 (a score of 0 if no trace of the product of hydrolysis was seen after 8 hours of incubation) |
| Ac-GATGHDKFL-NH2 [TGHD] |  |  | 0 (a score of 0 if no trace of the product of hydrolysis was seen after 8 hours of incubation) | 0 (a score of 0 if no trace of the product of hydrolysis was seen after 8 hours of incubation) |
| Ac-GATQHDKFL-NH2 [TQHD] |  |  | 0 (a score of 0 if no trace of the product of hydrolysis was seen after 8 hours of incubation) | 0 (a score of 0 if no trace of the product of hydrolysis was seen after 8 hours of incubation) |
| Ac-GASFHWKFL-NH2 [SFHW] | 4 (a score of 4 for detection at 6 hours) | 6 (a score of 6 for detection at 4 hours) |  |  |
| Ac-GATKHKKFL-NH2 [TKHK] |  |  | 12 (a score of 12, if it was seen to be partially hydrolysed at 2 hours) | 3 (a score of 3 for detection at 8 hours) |
| Ac-GATFHGKFL-NH2 [TFHG] |  |  | 0 (a score of 0 if no trace of the product of hydrolysis was seen after 8 hours of incubation) | 0 (a score of 0 if no trace of the product of hydrolysis was seen after 8 hours of incubation) |
| Ac-GATKHWKFL-NH2 [TKHW] |  |  | 12 (a score of 12, if it was seen to be partially hydrolysed at 2 hours) | 6 (a score of 6 for detection at 4 hours) |
| Ac-GATAHGKFL-NH2 [TAHG] |  |  | 0 (a score of 0 if no trace of the product of hydrolysis was seen after 8 hours of incubation) | 0 (a score of 0 if no trace of the product of hydrolysis was seen after 8 hours of incubation) |
| Ac-GASTHGKFL-NH2 [STHG] | 0 (a score of 0 if no trace of the product of hydrolysis was seen after 8 hours of incubation) | 0 (a score of 0 if no trace of the product of hydrolysis was seen after 8 hours of incubation) |  |  |
